Reference: ChEMBL document CHEMBL3822369, “Structure-Based Design of an in Vivo Active Selective BRD9 Inhibitor” (J Med Chem, 2016)

How the values were obtained:
Mus musculus [1] = assay: Clearance in BomTac:NMRI-Foxn1nu mouse plasma at 5 mg/kg, iv administered as bolus; format: ADME, organism-based; settings: in vivo
[2] = Oral bioavailability in BomTac:NMRI-Foxn1nu mouse at 20 mg/kg, administered as suspension; format: ADME, organism-based; settings: in vivo
[3] = Aqueous solubility of the compound at pH 6.8 by UPLC/UV method; format: physicochemical; settings: buffer
[4] = AUC (0 to last) in BomTac:NMRI-Foxn1nu mouse at 20 mg/kg, po administered as suspension; format: ADME, organism-based; set-up: dose 20 mg/kg, time 0 - last, route oral; settings: in vivo
[5] = AUC (0 to last) in BomTac:NMRI-Foxn1nu mouse at 180 mg/kg, po administered as suspension; format: ADME, organism-based; set-up: dose 180 mg/kg, time 0 - last, route oral; settings: in vivo
[6] = Cmax in BomTac:NMRI-Foxn1nu mouse at 180 mg/kg, po administered as suspension; format: ADME, organism-based; set-up: dose 180 mg/kg, route oral; settings: in vivo
[7] = Volume of distribution at steady state in BomTac:NMRI-Foxn1nu mouse plasma at 5 mg/kg, iv administered as bolus; format: ADME, organism-based; settings: read-out: Vdss
Mus musculus [8] = assay: AUC (0 to last) in plasma of CIEA-NOG mouse xenografted with human EOL-1 cells at 180 mg/kg, po administered qd for day 5 to 17 and day 20 to 22 post tumor transplantation; format: ADME, organism-based, EOL1; set-up: dose 180 mg/kg, time 0 - last, route oral; settings: in vivo
[9] = Apparent permeability in human Caco2 cells across apical side to basolateral side at 10 uM by LC-MS/MS analysis; format: ADME, cell-based; settings: Caco-2
[10] = Cmax in BomTac:NMRI-Foxn1nu mouse at 20 mg/kg, po administered as suspension; format: ADME, organism-based; set-up: dose 20 mg/kg, route oral; settings: in vivo
Mus musculus [11] = assay: (§1) Oral bioavailability in BomTac:NMRI-Foxn1nu mouse at 180 mg/kg, administered as suspension; format: ADME, organism-based; settings: in vivo
[12] = as §1; format: ADME, organism-based; settings: BomTac:NMRI-Foxn1nu, in vivo

| CL (Mus musculus [1]) [%] | bioavailability [2] [%] | solubility [3] [µg/mL] | AUC(0-t) [4] [µM·h] | AUC(0-t) [5] [µM·h] | Cmax [6] [µM] | Vd [7] [L/kg] | AUClast (Mus musculus [8]) [µM·h] | Papp A→B at 10 µM [9] [×10⁻⁶ cm/s] | Cmax [10] [µM] | F (Mus musculus [11]) [%] | bioavailability [12] [%] | SMILES |
| --- | --- | --- | --- | --- | --- | --- | --- | --- | --- | --- | --- | --- |
| 65 | 88 | > 90 | 15 | 226 | 35 | 2.1 | 268 | 11 | 5.4 | 151 |  | COc1cc(-c2cn(C)c(=O)c3cnccc23)c(OC)cc1CN(C)C |
| 57 | 39 | > 91 | 7.5 | 108 | 25 | 1.6 |  | 1.4 | 3 |  | 64 | COc1cc(-c2cn(C)c(=O)c3cnccc23)cc(OC)c1CN(C)C |
